# From PubChem BioAssay AID1963837 (Molecular Pharmacology Branch, DTP, NCI, 2024)
# Where “and” joins values, the source holds several entries; their conditions need not be identical. Equal values may be shown once.
# Test system: 843126-344-R-J1-PDC complex spheroid viability
# Assay: Anticancer human tumor 843126-344-R-J1-PDC patient-derived melanoma cell line growth inhibition [POLQ]
# Settings: for viability, T/C: stronger effect = lower value
# Procedure: Multicellular complex tumor spheroid response to Polymerase (POL) inhibitors (novobiocin, ART-558, RP6685) in combination with a variety of drugs and investigational agents in selected tumor cell lines
# The POL inhibitors (novobiocin, ART-558, and RP6685) were evaluated both individually and in combination with standard of care and investigational anticancer small molecules within a complex spheroid model of solid tumors. . Complex spheroids include a stromal component modeled by human endothelial cells (HUVEC) and fibroblasts modeled by human mesenchymal stem cells (MSCs). The concentration ranges selected for each drug and investigational agent were based upon clinically achievable concentrations if the clinical Cmax of the agent was known.
# Compounds. The drugs and investigational agents: novobiocin (NSC847541), ART-558 (NSC835418), RP-6685 (NSC848927), peposertib (NSC802822), ceralasertib (NSC780249), elimusertib (NSC800525), camonsertib (NSC841442), AZD-1390 (NSC803789), olaparib (NSC753686), talazoparib (NSC767125), rucaparib (NSC756644), sotorasib (NSC818433), MRTX-1133 (NSC836407), SN-38 (NSC673596), topotecan (NSC609699), epotoside (NSC141540), doxorubicin (NSC123127), gemcitabine (NSC613327), 5-fluorouracil (NSC19893), paclitaxel (NSC125973), vemurafenib (NSC761431), MSA-2 (NSC828583), SN-011 (NSC837082), adavosertib (NSC754352), prexasertib (NSC758257), carboplatin (NSC241240) and oxaliplatin (NSC266046), were obtained from the National Cancer Institute (NCI) Developmental Therapeutics Program Chemical Repository (21). The FDA-approved anticancer drug set is available from the Developmental Therapeutics Program at https://dtp.cancer.gov/organization/dscb/obtaining/. […] The stock solutions were prepared in dimethyl sulfoxide (DMSO, Sigma-Aldrich, St. Louis, MO, cat. D2650), except for the platinum compounds which were prepared in saline (Quality Biological, Gaithersburg, MD, cat. 114-055-101), at 800-fold the tested concentration and stored at -70 degrees C prior to their use. All drugs and investigational agents were tested over a range starting from a high concentration at or near the clinical Cmax and decreasing in half-log increments. If the clinical Cmax for an agent had not been determined, the highest concentration tested was 10 microM, except for SN-38, which was tested at a high concentration of 1 microM.
# Cell Culture. All cells were maintained in an incubator at 37 degrees C and 5% CO2 with 95% humidity. The PDC lines were cultured according to standard operating procedures established by the NCI PDMR (https://pdmr.cancer.gov). Table 3 of the manuscript, lists the cell lines along with the number of the three cell types plated to form the mct-spheroids and media for tumor cell growth. After thawing, all PDC lines, except 997537-175-T-J1-PDC and 415267-285-R-J2-PDC, were cultured in Matrigel-coated flasks prepared with a working solution of 1X Ham's F-12 nutrient mix, without supplementation (Thermo Fisher Scientific, cat. 11765054), 100 U/mL penicillin-streptomycin (Thermo Fisher Scientific, cat. 15140122), and 2.5% Matrigel (Corning Inc., Corning, NY, cat. 354248) for the first three passages. The two PDC lines 997537-175-T-J1-PDC and 415267-285-R-J2-PDC were cultured on uncoated flasks. The 857933-349-R-J2-PDC line was cultured in 6C/Colon 1B media containing advanced DMEM/F-12 (Thermo Fisher Scientific, cat. 12634028), 10 mM HEPES (Thermo Fisher Scientific, cat. 15630080), 1X GlutaMAX supplement (Thermo Fisher Scientific, cat. 35050061), 0.1 mg/mL primocin (InvivoGen, San Diego, CA, cat. ant-pm-2), 10% defined fetal bovine serum, heat inactivated (HyClone Laboratories Inc., Logan, UT, cat. SH30070.03HI), 50% L-WRN conditioned media (ATCC, cat. CRL-3276), 1.25 mM N-Acetyl-L-cysteine (Sigma-Aldrich, cat. A9165), 10 mM nicotinamide (Sigma-Aldrich, cat. N0636), 1X B-27 supplement (Thermo Fisher Scientific, cat. 17504044), 1X N-2 supplement (Thermo Fisher Scientific, cat. […]
# [1] = curve of first compound, second compound 0.0316 µM
# [2] = curve of first compound, second compound 0.1 µM
# [3] = curve of first compound, second compound 0.316 µM
# [4] = curve of first compound, second compound 1 µM
# [5] = curve of first compound, second compound 3.16 µM
# [6] = curve of first compound, second compound 10 µM
# [7] = second compound 0.0316 µM, first compound 0.0316 µM
# [8] = second compound 0.0316 µM, first compound 0.1 µM
# [9] = second compound 0.0316 µM, first compound 0.316 µM
# [10] = second compound 0.0316 µM, first compound 1 µM
# [11] = second compound 0.0316 µM, first compound 3.16 µM
# [12] = second compound 0.0316 µM, first compound 10 µM
# [13] = second compound 0.1 µM, first compound 0.0316 µM
# [14] = second compound 0.1 µM, first compound 0.1 µM
# [15] = second compound 0.1 µM, first compound 0.316 µM
# [16] = second compound 0.1 µM, first compound 1 µM
# [17] = second compound 0.1 µM, first compound 3.16 µM
# [18] = second compound 0.1 µM, first compound 10 µM
# [19] = second compound 0.316 µM, first compound 0.0316 µM
# [20] = second compound 0.316 µM, first compound 0.1 µM
# [21] = second compound 0.316 µM, first compound 0.316 µM
# [22] = second compound 0.316 µM, first compound 1 µM
# [23] = second compound 0.316 µM, first compound 3.16 µM
# [24] = second compound 0.316 µM, first compound 10 µM
# [25] = second compound 1 µM, first compound 0.0316 µM
# [26] = second compound 1 µM, first compound 0.1 µM
# [27] = second compound 1 µM, first compound 0.316 µM
# [28] = second compound 1 µM, first compound 1 µM
# [29] = second compound 1 µM, first compound 3.16 µM
# [30] = second compound 1 µM, first compound 10 µM
# [31] = second compound 3.16 µM, first compound 0.0316 µM
# [32] = second compound 3.16 µM, first compound 0.1 µM
# [33] = second compound 3.16 µM, first compound 0.316 µM
# [34] = second compound 3.16 µM, first compound 1 µM
# [35] = second compound 3.16 µM, first compound 3.16 µM
# [36] = second compound 3.16 µM, first compound 10 µM
# [37] = second compound 10 µM, first compound 0.0316 µM
# [38] = second compound 10 µM, first compound 0.1 µM
# [39] = second compound 10 µM, first compound 0.316 µM
# [40] = second compound 10 µM, first compound 1 µM
# [41] = second compound 10 µM, first compound 3.16 µM
# [42] = second compound 10 µM, first compound 10 µM
# 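For viability, T/C in this document: spheroids exposed to drugs for seven days before readout.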
compound,measurement,setting,value
CNCc1ccc(-c2[nH]c3cc(F)cc4c3c2CCNC4=O)cc1,"viability, T/C",compound 0.0316 µM,99.4% and 100% and 94.8%
same,"viability, T/C",compound 0.1 µM,77.4% and 81.4% and 75.4%
same,"viability, T/C",compound 0.316 µM,87.7% and 100% and 97.9%
same,"viability, T/C",compound 1 µM,76% and 91.1% and 107%
same,"viability, T/C",compound 3.16 µM,76% and 108% and 89%
same,"viability, T/C",compound 10 µM,73.8% and 87% and 79.3%
same,IC50,curve of compound,> 10 µM
CCc1cc2c(N3CCc4c(cc(Cn5ccnc5)cc4-c4cn(C)nc4C(F)(F)F)C3=O)ccnc2c(OC)n1 + COC1C(OC(N)=O)C(O)C(Oc2ccc3c(O)c(NC(=O)c4ccc(O)c(CC=C(C)C)c4)c(=O)oc3c2C)OC1(C)C,IC50,[1],> 10 µM
same,IC50,[2],8.32 µM
same,IC50,[3],> 10 µM
same,IC50,[4],> 10 µM
same,IC50,[5],> 10 µM
same,IC50,[6],> 10 µM
same,"viability, T/C",[7],94.1%
same,"viability, T/C",[8],88.3%
same,"viability, T/C",[9],87.3%
same,"viability, T/C",[10],78.4%
same,"viability, T/C",[11],62.2%
same,"viability, T/C",[12],60.8%
same,"viability, T/C",[13],82%
same,"viability, T/C",[14],99.8%
same,"viability, T/C",[15],92.2%
same,"viability, T/C",[16],70.4%
same,"viability, T/C",[17],63%
same,"viability, T/C",[18],46.5%
same,"viability, T/C",[19],99.5%
same,"viability, T/C",[20],78%
same,"viability, T/C",[21],78%
same,"viability, T/C",[22],73.1%
same,"viability, T/C",[23],76.6%
same,"viability, T/C",[24],62%
same,"viability, T/C",[25],84.5%
same,"viability, T/C",[26],93.8%
same,"viability, T/C",[27],78.2%
same,"viability, T/C",[28],80.6%
same,"viability, T/C",[29],65%
same,"viability, T/C",[30],57.2%
same,"viability, T/C",[31],78.4%
same,"viability, T/C",[32],99.7%
same,"viability, T/C",[33],87.2%
same,"viability, T/C",[34],72.6%
same,"viability, T/C",[35],67.6%
same,"viability, T/C",[36],61%
same,"viability, T/C",[37],80.8%
same,"viability, T/C",[38],79.7%
same,"viability, T/C",[39],79.5%
same,"viability, T/C",[40],78.5%
same,"viability, T/C",[41],61.7%
same,"viability, T/C",[42],66.1%
CCc1cc2c(N3CCc4c(cc(Cn5ccnc5)cc4-c4cn(C)nc4C(F)(F)F)C3=O)ccnc2c(OC)n1 + Nc1ccc(C#CCN(C(=O)Cc2ncc(C(F)(F)F)cc2C(F)(F)F)c2ccc(F)cc2)nn1,IC50,[1],> 10 µM
same,IC50,[2],> 10 µM
same,IC50,[3],> 10 µM
same,IC50,[4],> 10 µM
same,IC50,[5],> 10 µM
same,IC50,[6],> 10 µM
same,"viability, T/C",[7],91.6%
same,"viability, T/C",[8],90.2%
same,"viability, T/C",[9],82%
same,"viability, T/C",[10],86.8%
same,"viability, T/C",[11],64.7%
same,"viability, T/C",[12],61.6%
same,"viability, T/C",[13],107%
same,"viability, T/C",[14],100%
same,"viability, T/C",[15],81.5%
same,"viability, T/C",[16],77.1%
same,"viability, T/C",[17],88%
same,"viability, T/C",[18],61.6%
same,"viability, T/C",[19],101%
same,"viability, T/C",[20],100%
same,"viability, T/C",[21],96.6%
same,"viability, T/C",[22],82.3%
same,"viability, T/C",[23],72.9%
same,"viability, T/C",[24],61.5%
same,"viability, T/C",[25],96.6%
same,"viability, T/C",[26],99.3%
same,"viability, T/C",[27],94.4%
same,"viability, T/C",[28],72.2%
same,"viability, T/C",[29],88.4%
same,"viability, T/C",[30],58.2%
same,"viability, T/C",[31],94.5%
same,"viability, T/C",[32],90.9%
same,"viability, T/C",[33],96.7%
same,"viability, T/C",[34],80.1%
same,"viability, T/C",[35],82.7%
same,"viability, T/C",[36],56.8%
same,"viability, T/C",[37],83%
same,"viability, T/C",[38],76.6%
same,"viability, T/C",[39],75.8%
same,"viability, T/C",[40],73.5%
same,"viability, T/C",[41],80.2%
same,"viability, T/C",[42],55.9%
C=CCn1c(=O)c2cnc(Nc3ccc(N4CCN(C)CC4)cc3)nc2n1-c1cccc(C(C)(C)O)n1,"viability, T/C",compound 0.00316 µM,101% and 96.6% and 95.3%
same,"viability, T/C",compound 0.01 µM,89.5% and 86.3% and 96.3%
same,"viability, T/C",compound 0.0316 µM,95.7% (2×) and 111%
same,"viability, T/C",compound 0.1 µM,109% and 97.8% and 99.3%
same,"viability, T/C",compound 0.316 µM,91.6% and 93.7% and 98.2%
same,"viability, T/C",compound 1 µM,81.1% and 78.6% and 82.7%
same,IC50,curve of compound,> 1 µM
